Results from patent US20230099031A1, “BIFUNCTIONAL AGENTS FOR PROTEIN RECRUITMENT AND/OR DEGRADATION” (Orionis Biosciences, Inc., priority 2019, published 2023).

Assays:
Type in all cases: cell-based
[1] = target: T1, IKZF1 (Homo sapiens, UniProt Q13422+Q96SW2); assay: Recruitment Assay (MAPPIT-like): IKZF1 recruitment, pSEL-CRBN+pMG1-IKZF1(isoform 7); settings: recruitment of IKZF1, protocol of Example 2; read-out: EC50_IKZF1
T1 construct: expressed in transfected cells; host or cells: HEK293T
Protocol: (§1) In this experimental set-up, cells are transfected with a construct encoding a CRBN-fusion protein and another one encoding a substrate-fusion protein. Test compound activity is assessed with increasing concentrations of test compounds (dose-response studies) to monitor the ability to promote CRBN-ligand-induced protein interaction.
(§2) Full size proteins are fused for each of the target proteins tested, except in the case of IKZF1 where isoform 7 is used, and BRD4, where isoform 3 is applied. For the study, the following construct combinations are used: IKZF1 recruitment: pSEL-CRBN+pMG1-IKZF1(isoform 7); ASS1 recruitment: pSEL-CRBN+pMG1-ASS1; SALL4 recruitment: pSEL-SALL4+pMG1-CRBN; DHFR recruitment: pCLG-DHFR+pMG1-CRBN; ESR1 recruitment: pSEL-CRBN+pMG1-ESR1; BRD4 recruitment: pSEL-CRBN+pMG1-BRD4(isoform 3). Cells are treated with erythropoietin (Epo; where pSEL-type receptor fusions constructs are used) or leptin (in the case pCLG-type receptor fusion constructs are applied) without or with the indicated dose of test compound at 24 hours after transfection. Luciferase activity is measured 24 hours after test compound treatment using the Luciferase Assay System kit (PROMEGA, Madison, Wis.) with an Ensight plate reader (PERKIN ELMER LIFE SCIENCES, Waltham, Mass.). Data points depict fold induction of the average luciferase activity of triplicate samples from Epo or leptin+test compound treated cells versus Epo or leptin only treated cells. Error bars represent standard deviations. Curves are fit using 4-parameter nonlinear regression in […] PRISM software.

[2] = target: T2, CRBN (Homo sapiens, UniProt Q96SW2); assay: Competition Assay: MAPPIT-like, competition with trimethoprim-lenalidomide hybrid ligand for binding to CRBN in HEK293T cells; settings: protocol and reagents of Example 1; read-out: IC50 Competition
T2 construct: expressed in transfected cells; host or cells: HEK293T

[3] = target: T3, ASS1 (Homo sapiens, UniProt P00966+Q96SW2); assay: Recruitment Assay (MAPPIT-like): ASS1 recruitment, pSEL-CRBN+pMG1-ASS1; settings: recruitment of ASS1, protocol of Example 2; for EC50: read-out: EC50_ASS1
T3 construct: Full size proteins are fused for each of the target proteins tested; expressed in transfected cells; host or cells: HEK293T
Protocol: as §1, §2

[4] = target: T4, SALL4 (Homo sapiens, UniProt Q96SW2+Q9UJQ4); assay: Recruitment Assay (MAPPIT-like): SALL4 recruitment, pSEL-SALL4+pMG1-CRBN; settings: recruitment of SALL4, protocol of Example 2; read-out: EC50_SALL4
T4 construct: Full size proteins are fused for each of the target proteins tested; expressed in transfected cells; host or cells: HEK293T
Protocol: as §1, §2

| SMILES | EC50 [1] | IC50 [2] | EC50_ASS1 (M) [3] | EC50 [4] | EC50 [3] |
| --- | --- | --- | --- | --- | --- |
| Nc1cccc2c1CN(C1CC(=O)NC1=O)C2=O (stereo not drawn) [Compound C47930, 3-(4-amino-1-oxo-isoindolin-2-yl)pyrrolidine-2,5-dione] | 784 nM | – | – | – | – |
| O=C(O)CN1CCN(Cc2ccc(COc3cccc4c3CN(C3CCC(=O)NC3=O)C4=O)cc2)CC1 (stereo not drawn) [ZE26-0001, formic acid] | 4680 nM | 5760 nM | >> | 801 nM | – |
| O=C1CCCC(N2Cc3c(cccc3[N+](=O)[O-])C2=O)C(=O)N1 (stereo not drawn) [Compound C29737, 3-(4-nitro-1-oxo-isoindolin-2-yl)azepane-2,7-dione] | 1410 nM | – | – | – | – |
| O=C1CCC(N2Cc3c(NC(=O)Nc4cccc5c4CN(C4CCC(=O)NC4=O)C5=O)cccc3C2=O)C(=O)N1 (stereo not drawn) [Compound C30231, 1,3-bis[2-(2,6-dioxo-3-piperidyl)-1-oxo-isoindolin-4-yl]urea] | 2730 nM | 247000 nM | >> | 1780 nM | – |
| O=C1CCC(N2Cc3cc(NCC(=O)Nc4ccccc4)ccc3C2=O)C(=O)N1 (stereo not drawn) [Compound C35797, 2-[[2-(2,6-dioxo-3-piperidyl)-1-oxo-isoindolin-5-yl]amino]-N-phenyl-acetamide] | 1330 nM | 851 nM | >> | 1080 nM | – |
| N#CC1c2ccccc2C(=O)N1C1CCC(=O)NC1=O (stereo not drawn) [Compound C39453, 2-(2,6-dioxo-3-piperidyl)-3-oxo-isoindoline-1-carbonitrile] | 17100 nM | 7520 nM | – | 875 nM | – |
| O=C1CCC(N2Cc3cc(Nc4ncc5c(n4)COC5)ccc3C2=O)C(=O)N1 (stereo not drawn) [Compound C80380, 3-[5-(5,7-dihydrofuro[3,4-d]pyrimidin-2-ylamino)-1-oxo-isoindolin-2-yl]piperidine-2,6-dione] | 1780 nM | 760 nM | – | 9.89 nM | – |

Second part, the compound after the results:

| EC50 [1] | IC50 [2] | EC50_ASS1 (M) [3] | EC50 [4] | EC50 [3] | SMILES |
| --- | --- | --- | --- | --- | --- |
| 569 nM | 106 nM | – | 29.3 nM | 884 nM | O=C1CCC(N2Cc3c(ccc4c3OCO4)C2=O)C(=O)N1 (stereo not drawn) [Compound C67858, 3-(6-oxo-8H-[1,3]dioxolo[4,5-e]isoindol-7-yl)piperidine-2,6-dione] |
| 494 nM | 1110 nM | >> | 631 nM | – | CS(=O)(=O)Nc1cccc2c1CN(C1CCC(=O)NC1=O)C2=O (stereo not drawn) [Compound C22548, N-[2-(2,6-dioxo-3-piperidyl)-1-oxo-isoindolin-4-yl]methanesulfonamide] |
| 1240 nM | 24.3 nM | – | 62.1 nM | 921 nM | O=C1CCC(N2Cc3c(cccc3-c3ccccc3)C2=O)C(=O)N1 (stereo not drawn) [Compound C48014, 3-(1-oxo-4-phenyl-isoindolin-2-yl)piperidine-2,6-dione] |
| 1520 nM | 190 nM | – | 59.3 nM | 1700 nM | CC1c2ccccc2C(=O)N1C1CCC(=O)NC1=O (stereo not drawn) [Compound C51383, 3-(1-methyl-3-oxo-isoindolin-2-yl)piperidine-2,6-dione] |
| 58.7 nM | 11.5 nM | – | < 13.7 nM | 259 nM | O=C1CCC(N2Cc3c(Cl)cccc3C2=O)C(=O)N1 (stereo not drawn) [Compound C24031, 3-(4-chloro-1-oxo-isoindolin-2-yl)piperidine-2,6-dione] |
| 1150 nM | 484 nM | >> | 188 nM | – | O=C(CNc1ccc2c(c1)CN(C1CCC(=O)NC1=O)C2=O)NCc1ccccc1 (stereo not drawn) [Compound C35856, N-benzyl-2-[[2-(2,6-dioxo-3-piperidyl)-1-oxo-isoindolin-5-yl]amino]acetamide] |
| 122 nM | 704 nM | – | 33 nM | 698 nM | Nc1cccc2nnn(C3CCC(=O)NC3=O)c(=O)c12 (stereo not drawn) [Compound C59904, 3-(5-amino-4-oxo-1,2,3-benzotriazin-3-yl)piperidine-2,6-dione] |
| – | 7810 nM | >> | 1460 nM | – | CN(C)C1c2ccccc2C(=O)N1C1CCC(=O)NC1=O (stereo not drawn) [Compound C10981, 3-[1-(dimethylamino)-3-oxo-isoindolin-2-yl]piperidine-2,6-dione] |
